In PMC10023780, “Insights into membrane association of the SMP domain of extended synaptotagmin” (Nature Communications, 2023):
Where a chain is given by its changes, count along the chain named.

Assays:
SMP-C2AB of E-Syt1 [1] = target: T1, SMP-C2AB of E-Syt1 (Homo sapiens, UniProt Q9BSJ8, V169W/L308W); experiment: native PAGE, NBD fluorescence of protein band; assay type: binding; conditions: protein 40 uM, 4 °C, 1 h; solubilized NBD-PE added in methanol; lipid cavity blocked; labelled compound
T1 construct: gene ESYT1; SMP-C2A-C2B fragment, residues 93-634, His-tagged (pCMV6-AN-His), Expi293 cells, Ni-NTA and gel filtration
T1 sequence (Q9BSJ8 93-634 V169W/L308W): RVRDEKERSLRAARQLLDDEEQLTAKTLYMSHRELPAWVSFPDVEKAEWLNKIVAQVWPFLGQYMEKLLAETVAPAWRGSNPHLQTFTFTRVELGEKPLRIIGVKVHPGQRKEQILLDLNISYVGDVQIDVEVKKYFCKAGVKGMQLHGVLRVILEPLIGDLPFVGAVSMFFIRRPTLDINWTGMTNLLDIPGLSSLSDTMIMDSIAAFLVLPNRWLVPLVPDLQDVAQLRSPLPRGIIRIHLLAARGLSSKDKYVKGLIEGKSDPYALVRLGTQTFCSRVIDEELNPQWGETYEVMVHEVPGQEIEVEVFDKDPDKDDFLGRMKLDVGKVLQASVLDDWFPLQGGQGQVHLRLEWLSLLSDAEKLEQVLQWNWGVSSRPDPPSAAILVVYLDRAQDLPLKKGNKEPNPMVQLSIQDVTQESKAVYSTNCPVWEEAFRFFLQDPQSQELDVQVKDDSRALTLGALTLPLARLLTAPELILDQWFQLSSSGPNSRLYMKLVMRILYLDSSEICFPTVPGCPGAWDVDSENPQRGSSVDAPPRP

E-Syt1cyto = target: T2, E-Syt1cyto (Homo sapiens, UniProt Q9BSJ8); experiment: FRET dequenching lipid transfer between liposomes; assay type: biochemical; conditions: Ca2+ present, His tag on DGS-NTA(Ni) ER-like donor liposomes, PM-like acceptors, pH 7.4; labelled compound
T2 construct: gene ESYT1; cytosolic region, residues 93-1104, N-terminal hairpin region replaced by His tag (pCMV6-AN-His)
T2 sequence (Q9BSJ8 93-1104): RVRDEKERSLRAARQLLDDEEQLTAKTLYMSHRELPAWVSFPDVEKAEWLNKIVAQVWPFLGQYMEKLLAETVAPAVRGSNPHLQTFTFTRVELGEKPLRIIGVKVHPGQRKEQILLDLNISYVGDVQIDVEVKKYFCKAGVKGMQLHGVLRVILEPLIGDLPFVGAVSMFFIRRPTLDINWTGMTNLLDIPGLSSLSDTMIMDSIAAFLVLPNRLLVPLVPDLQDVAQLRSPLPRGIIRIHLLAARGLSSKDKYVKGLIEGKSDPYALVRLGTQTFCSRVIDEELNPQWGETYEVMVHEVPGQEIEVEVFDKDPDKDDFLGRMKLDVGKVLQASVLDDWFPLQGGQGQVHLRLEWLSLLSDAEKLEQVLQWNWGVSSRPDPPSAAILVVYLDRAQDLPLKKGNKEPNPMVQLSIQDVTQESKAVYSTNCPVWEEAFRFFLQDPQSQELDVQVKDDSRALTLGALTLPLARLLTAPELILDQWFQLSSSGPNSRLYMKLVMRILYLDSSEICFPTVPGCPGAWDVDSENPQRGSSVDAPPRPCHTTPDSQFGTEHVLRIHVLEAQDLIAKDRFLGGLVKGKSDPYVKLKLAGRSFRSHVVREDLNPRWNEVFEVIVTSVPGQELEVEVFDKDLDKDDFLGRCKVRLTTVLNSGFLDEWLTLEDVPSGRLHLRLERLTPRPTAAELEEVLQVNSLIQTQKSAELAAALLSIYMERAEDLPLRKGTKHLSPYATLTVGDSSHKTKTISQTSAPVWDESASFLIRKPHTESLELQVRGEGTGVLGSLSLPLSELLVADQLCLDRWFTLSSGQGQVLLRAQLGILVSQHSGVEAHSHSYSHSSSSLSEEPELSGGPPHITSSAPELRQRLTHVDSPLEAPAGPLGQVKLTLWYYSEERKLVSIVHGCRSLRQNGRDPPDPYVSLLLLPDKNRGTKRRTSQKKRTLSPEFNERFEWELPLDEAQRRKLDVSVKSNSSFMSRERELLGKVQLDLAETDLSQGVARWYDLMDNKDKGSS

[2] = target: T3, SMP domain of E-Syt1 (SMP) (Homo sapiens, UniProt Q9BSJ8); experiment: FRET dequenching lipid transfer between liposomes; assay type: biochemical; conditions: 40-nm sorted ER-like donor and 800-nm PM-like acceptor liposomes, pH 7.4, 37 °C, Ca2+ not needed; Rhodamine-PE co-transferred; labelled compound
T3 construct: gene ESYT1; SMP domain alone, residues 134-327, N-terminal His tag (pET-28a), dimer
T3 sequence (Q9BSJ8 134-327): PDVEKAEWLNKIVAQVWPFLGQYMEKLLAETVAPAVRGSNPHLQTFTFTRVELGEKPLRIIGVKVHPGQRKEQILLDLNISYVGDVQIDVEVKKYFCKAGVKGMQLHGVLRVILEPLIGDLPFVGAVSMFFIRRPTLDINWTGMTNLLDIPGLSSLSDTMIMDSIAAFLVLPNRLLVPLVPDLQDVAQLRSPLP

SMP-C2AB of E-Syt1 [3] = target: T4, SMP-C2AB of E-Syt1 (Homo sapiens, UniProt Q9BSJ8); experiment: native PAGE, NBD fluorescence of protein band; assay type: binding; conditions: protein 40 uM, 4 °C, 1 h; solubilized NBD-PE added in methanol; labelled compound
T4 construct: gene ESYT1; SMP-C2A-C2B fragment, residues 93-634, His-tagged (pCMV6-AN-His), Expi293 cells, Ni-NTA and gel filtration
T4 sequence (Q9BSJ8 93-634): T1 sequence (Q9BSJ8 93-634 V169W/L308W) with W77V, W216L

SMP of E-Syt3 = target: T5, SMP of E-Syt3 (Homo sapiens, UniProt A0FGR9); experiment: FRET dequenching lipid transfer between liposomes; assay type: biochemical; conditions: curved ER-like donor and PM-like acceptor liposomes, pH 7.4; labelled compound
T5 construct: gene ESYT3; SMP domain alone, residues 113-304, His tag (pET-28a); full-length protein 886 residues
T5 sequence (A0FGR9 113-304): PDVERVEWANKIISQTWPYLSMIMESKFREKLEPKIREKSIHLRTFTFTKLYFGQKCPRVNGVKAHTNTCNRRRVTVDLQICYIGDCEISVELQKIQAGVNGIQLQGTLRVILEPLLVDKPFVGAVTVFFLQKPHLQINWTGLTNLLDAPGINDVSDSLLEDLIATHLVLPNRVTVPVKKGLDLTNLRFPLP

SMP-C2AB of E-Syt1 [4] = target: T6, SMP-C2AB of E-Syt1 (Homo sapiens, UniProt Q9BSJ8, K227E); experiment: native PAGE, NBD fluorescence of protein band; assay type: binding; conditions: protein 40 uM, 4 °C, 1 h; solubilized NBD-PE added in methanol; labelled compound
T6 construct: gene ESYT1; SMP-C2A-C2B fragment, residues 93-634, His-tagged (pCMV6-AN-His), Expi293 cells, Ni-NTA and gel filtration
T6 sequence (Q9BSJ8 93-634 K227E): T1 sequence (Q9BSJ8 93-634 V169W/L308W) with W77V, K135E, W216L

SMP of E-Syt2 = target: T7, SMP of E-Syt2 (Homo sapiens, UniProt A0FGR8); experiment: FRET dequenching lipid transfer between liposomes; assay type: biochemical; conditions: curved ER-like donor and PM-like acceptor liposomes, pH 7.4; labelled compound
T7 construct: gene ESYT2; SMP domain alone, residues 162-355, His tag (pET-28a), dimer
T7 sequence (A0FGR8 162-355 isoform A0FGR8-2): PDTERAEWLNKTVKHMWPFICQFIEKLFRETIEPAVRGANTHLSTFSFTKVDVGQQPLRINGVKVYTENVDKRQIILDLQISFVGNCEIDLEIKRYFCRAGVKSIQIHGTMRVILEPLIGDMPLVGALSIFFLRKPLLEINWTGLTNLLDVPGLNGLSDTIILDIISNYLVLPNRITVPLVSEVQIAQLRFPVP

full-length E-Syt1 = target: T8, full-length E-Syt1 (Homo sapiens, UniProt Q9BSJ8); experiment: FRET dequenching lipid transfer from proteoliposomes; assay type: biochemical; conditions: Ca2+ present, 40-nm sorted ER-like proteoliposomes, 800-nm PM-like acceptors, pH 7.4, room temperature; labelled compound
T8 construct: gene ESYT1; full length, residues 1-1104, His-tagged (pCMV6-AN-His), Expi293 cells, detergent-purified, reconstituted in ER-like liposomes
T8 sequence (Q9BSJ8 1-1104): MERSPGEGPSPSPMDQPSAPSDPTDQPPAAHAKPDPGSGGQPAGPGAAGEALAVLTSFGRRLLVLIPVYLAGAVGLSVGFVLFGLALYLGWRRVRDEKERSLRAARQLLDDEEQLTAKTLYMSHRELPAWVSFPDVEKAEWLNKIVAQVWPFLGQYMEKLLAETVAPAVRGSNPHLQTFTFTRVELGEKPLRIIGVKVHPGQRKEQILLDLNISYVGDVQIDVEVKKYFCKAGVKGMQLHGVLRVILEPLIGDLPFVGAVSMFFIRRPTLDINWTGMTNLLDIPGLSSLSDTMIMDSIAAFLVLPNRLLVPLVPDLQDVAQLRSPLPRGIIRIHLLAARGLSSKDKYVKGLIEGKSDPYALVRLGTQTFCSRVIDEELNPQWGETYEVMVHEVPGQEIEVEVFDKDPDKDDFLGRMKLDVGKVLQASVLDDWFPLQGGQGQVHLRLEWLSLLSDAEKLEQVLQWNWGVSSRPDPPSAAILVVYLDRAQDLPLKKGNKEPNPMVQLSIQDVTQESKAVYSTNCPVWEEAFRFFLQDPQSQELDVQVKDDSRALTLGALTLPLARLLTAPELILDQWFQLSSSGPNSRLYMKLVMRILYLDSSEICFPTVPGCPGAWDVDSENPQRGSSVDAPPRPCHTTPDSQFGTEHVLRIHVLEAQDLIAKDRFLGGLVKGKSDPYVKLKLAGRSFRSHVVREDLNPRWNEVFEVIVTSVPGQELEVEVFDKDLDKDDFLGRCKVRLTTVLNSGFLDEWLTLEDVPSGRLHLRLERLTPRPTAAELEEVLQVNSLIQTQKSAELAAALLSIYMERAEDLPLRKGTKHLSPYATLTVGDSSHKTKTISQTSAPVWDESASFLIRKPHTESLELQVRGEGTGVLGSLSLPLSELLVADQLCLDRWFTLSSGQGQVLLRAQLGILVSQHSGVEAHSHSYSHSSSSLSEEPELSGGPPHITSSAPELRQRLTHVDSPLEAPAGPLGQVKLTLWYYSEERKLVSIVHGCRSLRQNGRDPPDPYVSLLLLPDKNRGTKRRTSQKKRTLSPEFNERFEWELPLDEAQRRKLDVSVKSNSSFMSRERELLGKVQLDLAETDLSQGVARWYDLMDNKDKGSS

CCCCCCCC/C=C\CCCCCCCC(=O)OC[C@H](COP(=O)(O)OCCNc1ccc([N+](=O)[O-])c2nonc12)OC(=O)CCCCCCC/C=C\CCCCCCCC [NBD-PE, 1,2-dioleoyl-sn-glycero-3-phosphoethanolamine-N-(7-nitro-2-1,3-benzoxadiazol-4-yl)]
native PAGE, NBD fluorescence of protein band (SMP-C2AB of E-Syt1 [1]): block the hydrophobic cavity of the SMP domain (V169W/L308W) impaired lipid harboring | FRET dequenching lipid transfer between liposomes (E-Syt1cyto): purified His-tagged E-Syt1cyto had comparable lipid transfer and membrane tethering levels as full-length E-Syt1 | FRET dequenching lipid transfer between liposomes [2]: 40-nm sorted ER-like liposomes produced a robust lipid transfer level | native PAGE, NBD fluorescence of protein band (SMP-C2AB of E-Syt1 [3]): solubilized NBD-PE was loaded onto purified WT protein and K227E mutant | FRET dequenching lipid transfer between liposomes (SMP of E-Syt3): SMP domains of E-Syt2 and E-Syt3 showed similar membrane curvature- and charge-facilitated lipid transfer | native PAGE, NBD fluorescence of protein band (SMP-C2AB of E-Syt1 [4]): NBD-PE was loaded onto purified WT protein and K227E mutant at a similar level | FRET dequenching lipid transfer between liposomes (SMP of E-Syt2): SMP domains of E-Syt2 and E-Syt3 showed similar membrane curvature- and charge-facilitated lipid transfer | FRET dequenching lipid transfer from proteoliposomes (full-length E-Syt1): 40-nm sorted ER-like proteoliposomes dramatically accelerated the lipid transfer by E-Syt1
